We go through 18 compounds from patent US7713971B2, “1,2,4-triazine derivatives, preparation and use thereof in human therapy” (Pierre Fabre Medicament, priority 2005, dated 2010).

The structures appear in SMILES notation. Where two headings read alike, the source gives them in different places.

In one assay the target is T1, human PPARγ (Homo sapiens, UniProt P37231).
T1 construct: expressed in transfected cells; host or cells: Cos-7 cells (ATCC, CRL-1651)
T1 sequence (P37231 238-503 limits assumed): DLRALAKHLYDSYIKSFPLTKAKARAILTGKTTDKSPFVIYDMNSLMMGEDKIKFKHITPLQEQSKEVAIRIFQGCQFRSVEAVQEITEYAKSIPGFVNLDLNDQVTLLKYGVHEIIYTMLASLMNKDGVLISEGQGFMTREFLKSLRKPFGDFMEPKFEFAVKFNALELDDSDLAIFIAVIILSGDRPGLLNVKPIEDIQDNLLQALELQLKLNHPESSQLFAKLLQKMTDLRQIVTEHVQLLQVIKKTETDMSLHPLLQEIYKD
Kind of assay: Reporter gene transactivation, hPPAR-GAL4 gamma. The assay is classed as cell-based. The settings on record: transfected Cos-7 cells, Gal-4 luciferase reporter, 24 hours treatment. (A reporter such as luciferase makes a cellular process visible.)

For assay [1], the system named is insulin-resistant male rat (Ico: ZUCKER-fa/fa). Kind of assay: Normalization of metabolic parameters (cholesterol, plasma triglycerides) in insulin-resistant rat. Conditions: oral route, once per day for four days, Zucker fa/fa rat unfed 16-18 hours; for change in vivo at 2.5 mg/kg / change in vivo at 10 mg/kg: 96 h. It counts as in vivo. The protocol: Normalization of metabolic parameters (cholesterol, plasma triglycerides) in an insulin-resistant male rat (Ico: ZUCKER-fa/fa), unfed for 16-18 hours, after treatment by oral route, once per day for four days, with the compounds to be evaluated or their administration vehicle.
These metabolic parameters are measured by spectrophotometry at the beginning and the end of each animal's treatment.

The target in a further assay is T2, human PPARδ (Homo sapiens, UniProt Q03181).
T2 construct: expressed in transfected cells; host or cells: Cos-7 cells (ATCC, CRL-1651)
T2 sequence (Q03181 211-439 limits assumed): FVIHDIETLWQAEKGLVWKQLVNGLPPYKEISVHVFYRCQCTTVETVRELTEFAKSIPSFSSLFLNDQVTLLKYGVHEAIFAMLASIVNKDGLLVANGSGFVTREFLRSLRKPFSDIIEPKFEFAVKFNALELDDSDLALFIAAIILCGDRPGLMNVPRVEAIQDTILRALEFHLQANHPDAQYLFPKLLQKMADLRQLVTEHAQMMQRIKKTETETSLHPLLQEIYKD
Kind of assay: Reporter gene transactivation, hPPAR-GAL4 delta. It counts as cell-based. The settings on record: transfected Cos-7 cells, Gal-4 luciferase reporter, 24 hours treatment.

Another assay concerns the target T3, human PPARα (Homo sapiens, UniProt Q07869).
T3 construct: expressed in transfected cells; host or cells: Cos-7 cells (ATCC, CRL-1651)
T3 sequence (Q07869 239-466 limits assumed): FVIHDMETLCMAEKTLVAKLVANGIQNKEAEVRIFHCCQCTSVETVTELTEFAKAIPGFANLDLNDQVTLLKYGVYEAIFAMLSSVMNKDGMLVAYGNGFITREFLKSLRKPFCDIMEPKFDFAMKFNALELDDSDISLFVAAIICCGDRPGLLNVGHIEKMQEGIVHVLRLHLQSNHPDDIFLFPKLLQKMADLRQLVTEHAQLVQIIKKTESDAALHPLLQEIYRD
Kind of assay: Reporter gene transactivation, hPPAR-GAL4 alpha. The assay is classed as cell-based. The settings on record: transfected Cos-7 cells, Gal-4 luciferase reporter, 24 hours treatment.

[2] abbreviates: at 2.5 mg/kg, read-out: Plasma cholesterol.

Usually EC50 stands for the concentration at which the effect is half-maximal. Lower therefore signals greater potency. On to `CCCCn1nc(OCCCCCc2cccc(OC(C)(C)C(=O)OCC)c2)c(=O)n(CCCC)c1=O` [Example 13, Ethyl 2-{3-[5-(2,4-dibutyl-3,5-dioxo-2,3,4,5-tetrahydro-[1,2,4]triazin-6-yloxy)-pentyl]-phenoxy}-2-methyl-propionate], for which the EC50 is 0.1 to 0.3 µM on human PPARγ, approximately 3 µM on human PPARδ and 0.01 to 0.03 µM at human PPARα. In assay [1] (setting [2]), the change in vivo at 2.5 mg/kg was -8%. Further, the change in vivo at 10 mg/kg in assay [1] (read-out: Plasma cholesterol) was -12%; in assay [1] (read-out: Plasma triglycerides), -28%. For the same compound, the Plasma triglycerides result in assay [1] (at 2.5 mg/kg) was “inactive at 2.5”.

For `CCCCn1c(=O)c(OCCCCCc2cccc(OC(C)(C)C(=O)OCC)c2)nn(CCCC(F)(F)F)c1=O` [Example 14, Ethyl 2-(3-{5-[4-Butyl-3,5-dioxo-2-(4,4,4-trifluoro-butyl)-2,3,4,5-tetrahydro-[1,2,4]triazin-6-yloxy]-pentyl}-phenoxy)-2-methyl-propionate], the EC50 was approximately 1 µM at human PPARγ, approximately 10 µM at human PPARδ and 0.01 to 0.03 µM on human PPARα.

As to `CCCCCCCn1nc(OCCCc2ccc(OC(C)(C)C(=O)OCC)cc2)c(=O)n(C)c1=O` [Example 27, Ethyl 2-{4-[3-(2-heptyl-4-methyl-3,5-dioxo-2,3,4,5-tetrahydro-[1,2,4]triazin-6-yloxy)-propyl]-phenoxy}-2-methyl-propionate], the results for the EC50 at human PPARγ, at human PPARδ and at human PPARα were 3 to 10 µM, 3 to 10 µM and approximately 3 µM, respectively.

Regarding `CCCCCCCn1nc(OCCCCc2ccc(OC(C)(C)C(=O)OCC)cc2)c(=O)n(C)c1=O` [Example 29, Ethyl 2-{4-[4-(2-heptyl-4-methyl-3,5-dioxo-2,3,4,5-tetrahydro-[1,2,4]triazin-6-yloxy)-butyl]-phenoxy}-2-methyl-propionate], the EC50 at human PPARγ, at human PPARδ and at human PPARα was 3 to 10 µM in each case.

Take `CCCCCCCn1c(=O)c(OCCCCc2ccc(OC(C)(C)C(=O)OCC)cc2)nn(CCCC(F)(F)F)c1=O` [Example 31, Ethyl 2-(4-{4-[4-heptyl-3,5-dioxo-2-(4,4,4-trifluoro-butyl)-2,3,4,5-tetrahydro-[1,2,4]triazin-6-yloxy]-butyl}-phenoxy)-2-methyl-propionate]: the EC50 was approximately 1 µM on human PPARγ, 3 to 10 µM on human PPARδ and approximately 0.1 µM on human PPARα.

Regarding `CCOC(=O)C(C)(C)Oc1cccc(OCCCOc2nn(CCCC(F)(F)F)c(=O)n(CCCC(F)(F)F)c2=O)c1` [Example 35, Ethyl 2-(3-{3-[3,5-dioxo-2,4-bis-(4,4,4-trifluoro-butyl)-2,3,4,5-tetrahydro-[1,2,4]triazin-6-yloxy]-propoxy}-phenoxy)-2-methyl-propionate], the EC50 on human PPARγ was 3 to 10 µM; on human PPARδ, approximately 10 µM; on human PPARα it was 0.03 to 0.1 µM.

For the compound `CCOC(=O)C(C)(C)Oc1ccc(OCCCOc2nn(CCCC(F)(F)F)c(=O)n(CCCC(F)(F)F)c2=O)cc1` [Example 39, Ethyl 2-(4-{3-[3,5-dioxo-2,4-bis-(4,4,4-trifluoro-butyl)-2,3,4,5-tetrahydro-[1,2,4]triazin-6-yloxy]-propoxy}-phenoxy)-2-methyl-propionate], the EC50 is 3 to 10 µM on human PPARγ, approximately 3 µM at human PPARδ and 0.1 to 0.3 µM on human PPARα.

Consider `CCCCCCCn1nc(NCCOc2ccc(OC(C)(C)C(=O)OCC)cc2)c(=O)n(C)c1=O` [Example 40, Ethyl 2-{4-[2-(2-heptyl-4-methyl-3,5-dioxo-2,3,4,5-tetrahydro-[1,2,4]triazin-6-ylamino)-ethoxy]-phenoxy}-2-methyl-propionate], for which the EC50 on human PPARγ is approximately 10 µM; on human PPARδ, more than 10 µM; at human PPARα it was 3 to 10 µM.

In the case of `CCCCCCCn1nc(NCCOc2ccc(OC(C)(C)C(=O)OCC)cc2)c(=O)n(CCCCCCC)c1=O` [Example 42, Ethyl 2-{4-[2-(2,4-diheptyl-3,5-dioxo-2,3,4,5-tetrahydro-[1,2,4]triazin-6-ylamino)-ethoxy]-phenoxy}-2-methyl-propionate], the EC50 at human PPARγ was more than 10 µM; on human PPARδ it was 1 to 3 µM; at human PPARα, approximately 1 µM.

For `CCCCCCCn1c(=O)c(NCCCOc2ccc(OC(C)(C)C(=O)OCC)cc2)nn(CCCC(F)(F)F)c1=O` [Example 48, Ethyl 2-(4-{3-[4-heptyl-3,5-dioxo-2-(4,4,4-trifluoro-butyl)-2,3,4,5-tetrahydro-[1,2,4]triazin-6-ylamino]-propoxy}-phenoxy)-2-methyl-propionate], the EC50 on human PPARγ was 0.3 to 1 µM; on human PPARδ, approximately 3 µM; at human PPARα, 0.3 to 1 µM.

Consider `CCCCCCCn1c(=O)c(NCCCCc2cccc(OC(C)(C)C(=O)OCC)c2)nn(Cc2ccccc2)c1=O` [Example 89, Ethyl 2-{3-[4-(2-benzyl-4-heptyl-3,5-dioxo-2,3,4,5-tetrahydro-[1,2,4]triazin-6-ylamino)-butyl]-phenoxy}-2-methyl-propionate], for which the EC50 on human PPARγ is 1 to 3 µM; at human PPARδ, 3 to 10 µM; on human PPARα, more than 10 µM.

With `CCCCCCCn1c(=O)c(NCCc2ccc(OC(C)(C)C(=O)OCC)cc2)nn(C)c1=O` [Example 106, Ethyl 2-{4-[2-(4-heptyl-2-methyl-3,5-dioxo-2,3,4,5-tetrahydro-[1,2,4]triazin-6-ylamino)-ethyl]-phenoxy}-2-methyl-propionate], the values for the EC50 on human PPARδ and on human PPARα were more than 10 µM and approximately 1 µM, respectively.

Turning to `CCCCCCCn1nc(NCCc2ccc(OC(C)(C)C(=O)OCC)cc2)c(=O)n(Cc2ccccc2)c1=O` [Example 109, Ethyl 2-{4-[2-(4 benzyl-2-heptyl-3,5-dioxo-2,3,4,5-tetrahydro-[1,2,4]triazin-6-ylamino)-ethyl]-phenoxy}-2-methyl-propionate], the EC50 on human PPARδ was 3 to 10 µM; at human PPARα it was approximately 1 µM.

With `CCOC(=O)C(C)(C)Oc1ccc(CCNc2nn(COCc3ccccc3)c(=O)n(COCc3ccccc3)c2=O)cc1` [Example 110, Ethyl 2-{4-[2-(2,4-bis-benzyloxymethyl-3,5-dioxo-2,3,4,5-tetrahydro-[1,2,4]triazin-6-ylamino)ethyl]-phenoxy}-2-methyl-propionate], the EC50 was more than 10 µM at human PPARδ and 1 to 3 µM at human PPARα.

With `CCOC(=O)C(C)(C)Oc1ccc(CCN(CCCc2ccccc2)c2nn(C)c(=O)n(C)c2=O)cc1` [Example 115, Ethyl 2-(4-{2-[(2,4-dimethyl-3,5-dioxo-2,3,4,5-tetrahydro-[1,2,4]triazin-6-yl)-(3-phenylpropyl)-amino]-ethyl}-phenoxy)-2-methyl-propionate], the figures for the half-maximal effective concentration (EC50) at human PPARδ and at human PPARα were more than 10 µM and approximately 3 µM, respectively.

With `CCCCCCCn1c(=O)c(NCCc2ccc(SC(C)(C)C(=O)OCC)cc2)nn(C)c1=O` [Example 122, Ethyl 2-{4-[2-(4-heptyl-2-methyl-3,5-dioxo-2,3,4,5-tetrahydro-[1,2,4]triazin-6-ylamino)-ethyl]-phenylsulfanyl}-2-methyl-propionate], the results for the change in vivo at 10 mg/kg in assay [1] (read-out: Plasma cholesterol) and in assay [1] (read-out: Plasma triglycerides) were -22% and -35%, respectively. For the same compound, the EC50 is more than 10 µM on human PPARδ and approximately 0.3 µM at human PPARα.

As to `CCCCCCCn1c(=O)c(NCCc2ccc(SC(C)(C)C(=O)O)cc2)nn(CCCC(F)(F)F)c1=O` [Example 123, 2-(4-{2-[4-Heptyl-3,5-dioxo-2-(4,4,4-trifluoro-butyl)-2,3,4,5-tetrahydro-[1,2,4]triazin-6-ylamino]-ethyl}-phenylsulfanyl)-2-methyl-propionic Acid], the EC50 is approximately 10 µM at human PPARγ and 0.1 to 0.3 µM at human PPARα. For the same compound, the change in vivo at 2.5 mg/kg in assay [1] (setting [2]) is -8%; in assay [1] (at 2.5 mg/kg, read-out: Plasma triglycerides), -6%. Besides, the values for the change in vivo at 10 mg/kg in assay [1] (read-out: Plasma cholesterol) and in assay [1] (read-out: Plasma triglycerides) were -14% and -20%, respectively.

As for `CC(C)(Oc1ccc(C(=O)c2ccc(Cl)cc2)cc1)C(=O)O` [Fenofibric acid, reference compound], the figures for the EC50 on human PPARδ and at human PPARα were more than 100 µM and 16.9 µM, respectively.
